Source: ChEMBL document CHEMBL1201862, “PubChem BioAssay data set” (2004)
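48-hour exposure; five concentrations; linearly interpolated endpoints. GI50 = concentration required for 50% inhibition of growth.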 Calls of active or inactive are those of the source. No stated cut-off is given here; in the data, active = GI50 up to about 1.1 µM and inactive = higher.

Legend:
Experiment in all cases: inhibition of tumour cell growth, NCI panel, 48 h
COLO 205 = system: COLO 205
EKVX = system: EKVX
SK-OV-3 = system: SK-OV-3
NCI-H522 = system: NCI-H522
MDA-N = system: MDA-N
NCI-H460 = system: NCI-H460
DU-145 = system: DU-145
SR = system: SR
TK-10 = system: TK-10
XF498 = system: XF498
OVCAR-3 = system: OVCAR-3
DLD-1 = system: DLD-1
M14 = system: M14
M19-MEL = system: M19-MEL
HCC 2998 = system: HCC 2998
SNB-19 = system: SNB-19
A549 = system: A549
LOX IMVI = system: LOX IMVI
PC-3 = system: PC-3
OVCAR-5 = system: OVCAR-5
KM12 = system: KM12
UACC-62 = system: UACC-62
RPMI-8226 = system: RPMI-8226
SNB-75 = system: SNB-75
T47D = system: T47D
NCI/ADR-RES = system: NCI/ADR-RES
CCRF-CEM = system: CCRF-CEM
SK-MEL-5 = system: SK-MEL-5
IGROV-1 = system: IGROV-1
UACC-257 = system: UACC-257
OVCAR-8 = system: OVCAR-8
SNB-78 = system: SNB-78
K562 = system: K562
A498 = system: A498
ACHN = system: ACHN
UO-31 = system: UO-31
HCT-15 = system: HCT-15
HCT-116 = system: HCT-116
RXF 393 = system: RXF 393
DMS-273 = system: DMS-273
Malme-3M = system: Malme-3M
OVCAR-4 = system: OVCAR-4
HOP-18 = system: HOP-18
SN12C = system: SN12C
DMS-114 = system: DMS-114
786-0 = system: 786-0
MDA-MB-435 = system: MDA-MB-435
KM-20L2 = system: KM-20L2
SK-MEL-28 = system: SK-MEL-28
HT-29 = system: HT-29
HOP-62 = system: HOP-62
SF-295 = system: SF-295
NCI-H226 = system: NCI-H226
HOP-92 = system: HOP-92
HL-60 = system: HL-60
SW-620 = system: SW-620
U-251 = system: U-251
MDA-MB-231 = system: MDA-MB-231
SK-MEL-2 = system: SK-MEL-2
Hs-578T = system: Hs-578T
MOLT-4 = system: MOLT-4
BT-549 = system: BT-549
SF-539 = system: SF-539
NCI-H23 = system: NCI-H23
LXFL 529 = system: LXFL 529
SF-268 = system: SF-268
CAKI-1 = system: CAKI-1
RXF 631 = system: RXF 631

Measured: GI50

Nc1nc(N)c2c(Cl)c(CNc3ccc(Cl)c(Cl)c3)ccc2n1
active: COLO 205 0.239 µM | SK-OV-3 0.574 µM | NCI-H522 0.0499 µM | MDA-N < 10 nM | NCI-H460 < 0.01 µM | DU-145 150 nM | SR < 0.0371 µM | TK-10 0.256 µM | OVCAR-3 0.168 µM | DLD-1 < 0.01 µM | M14 < 0.01 µM | M19-MEL 0.0238 µM | HCC 2998 0.0146 µM | SNB-19 0.486 µM | A549 < 0.01 µM | LOX IMVI < 0.01 µM | PC-3 < 10 nM | OVCAR-5 < 0.01 µM | KM12 0.0238 µM | UACC-62 < 0.01 µM | RPMI-8226 0.181 µM | NCI/ADR-RES < 10 nM | CCRF-CEM < 0.01 µM | SK-MEL-5 < 0.01 µM | IGROV-1 < 0.01 µM | UACC-257 0.138 µM | OVCAR-8 < 0.01 µM | K562 < 0.01 µM | A498 0.0682 µM | ACHN < 0.01 µM | UO-31 0.0294 µM | HCT-116 < 0.01 µM | RXF 393 0.337 µM | DMS-273 < 0.0259 µM | Malme-3M 0.471 µM | OVCAR-4 0.871 µM | HOP-18 0.716 µM | SN12C < 0.104 µM | DMS-114 < 0.01 µM | 786-0 < 0.01 µM | MDA-MB-435 < 10 nM | KM-20L2 0.225 µM | SK-MEL-28 0.78 µM | HT-29 < 0.01 µM | HOP-62 0.0171 µM | SF-295 < 0.01 µM | HOP-92 0.445 µM | HL-60 < 0.01 µM | SW-620 < 0.01 µM | U-251 < 0.0215 µM | MOLT-4 < 0.0536 µM | SF-539 0.016 µM | NCI-H23 0.0102 µM | LXFL 529 < 0.0278 µM | SF-268 0.0116 µM
< 0.01 µM: HCT-15
inactive: EKVX 2.87 µM | XF498 2.07 µM | SNB-75 2.64 µM | T47D 6.85 µM | SNB-78 7.19 µM | NCI-H226 12.9 µM | MDA-MB-231 1.52 µM | SK-MEL-2 3.11 µM | Hs-578T 1.6 µM | BT-549 4.49 µM

CC(=O)/C(=N\O)C(=O)NCCc1ccccc1
inactive: COLO 205 45.9 µM | EKVX > 100 µM | SK-OV-3 > 100 µM | NCI-H522 > 100 µM | NCI-H460 41.6 µM | SR > 100 µM | TK-10 45.1 µM | XF498 31.6 µM | OVCAR-3 > 100 µM | DLD-1 60.4 µM | M14 > 100 µM | M19-MEL > 100 µM | HCC 2998 66.5 µM | SNB-19 > 100 µM | A549 98.6 µM | LOX IMVI 41.8 µM | OVCAR-5 > 100 µM | KM12 58.3 µM | UACC-62 > 100 µM | RPMI-8226 57.7 µM | SNB-75 > 100 µM | CCRF-CEM 76.4 µM | SK-MEL-5 > 100 µM | IGROV-1 > 100 µM | UACC-257 57.7 µM | OVCAR-8 > 100 µM | SNB-78 > 100 µM | K562 68.7 µM | A498 > 100 µM | ACHN > 100 µM | UO-31 > 100 µM | HCT-116 46 µM | RXF 393 64.7 µM | DMS-273 55.1 µM | Malme-3M > 100 µM | OVCAR-4 > 100 µM | HOP-18 > 100 µM | SN12C > 100 µM | DMS-114 43.7 µM | 786-0 68.2 µM | KM-20L2 78.9 µM | SK-MEL-28 > 100 µM | HT-29 83.2 µM | HOP-62 > 100 µM | CAKI-1 > 100 µM | SF-295 > 100 µM | NCI-H226 > 100 µM | HOP-92 > 100 µM | HL-60 73.8 µM | SW-620 38.8 µM | U-251 63.5 µM | SK-MEL-2 > 100 µM | MOLT-4 > 100 µM | SF-539 > 100 µM | NCI-H23 > 100 µM | LXFL 529 > 100 µM | SF-268 > 100 µM
41.1 µM: HCT-15

Cc1cc(S(=O)(=O)O)c(NC(=O)C(=O)Cc2cc(=O)oc3cc(O)ccc23)cc1Cl
inactive: COLO 205 > 100 µM | EKVX > 100 µM | SK-OV-3 > 100 µM | NCI-H522 > 100 µM | NCI-H460 > 100 µM | SR > 100 µM | TK-10 > 100 µM | OVCAR-3 > 100 µM | DLD-1 > 100 µM | M14 > 100 µM | M19-MEL > 100 µM | RXF 631 > 100 µM | HCC 2998 > 100 µM | SNB-19 > 100 µM | A549 > 100 µM | LOX IMVI > 100 µM | OVCAR-5 > 100 µM | KM12 > 100 µM | UACC-62 > 100 µM | SNB-75 > 100 µM | CCRF-CEM > 100 µM | SK-MEL-5 > 100 µM | IGROV-1 > 100 µM | UACC-257 > 100 µM | OVCAR-8 > 100 µM | K562 > 100 µM | A498 > 100 µM | ACHN > 100 µM | UO-31 > 100 µM | HCT-116 > 100 µM | RXF 393 > 100 µM | DMS-273 > 100 µM | Malme-3M > 100 µM | OVCAR-4 > 100 µM | HOP-18 > 100 µM | SN12C > 100 µM | DMS-114 > 100 µM | 786-0 > 100 µM | KM-20L2 > 100 µM | SK-MEL-28 > 100 µM | HT-29 > 100 µM | HOP-62 > 100 µM | CAKI-1 > 100 µM | SF-295 > 100 µM | NCI-H226 > 100 µM | HOP-92 > 100 µM | HL-60 > 100 µM | SW-620 > 100 µM | U-251 > 100 µM | SK-MEL-2 > 100 µM | MOLT-4 > 100 µM | SF-539 > 100 µM | NCI-H23 > 100 µM | SF-268 > 100 µM
> 100 µM: HCT-15

O=C(O)CCCCCO
> 100 µM: HCT-15
inactive: COLO 205 > 100 µM | EKVX > 100 µM | SK-OV-3 > 100 µM | NCI-H522 > 100 µM | NCI-H460 > 100 µM | SR > 100 µM | TK-10 > 100 µM | XF498 > 100 µM | OVCAR-3 > 100 µM | DLD-1 > 100 µM | M14 > 100 µM | M19-MEL > 100 µM | HCC 2998 > 100 µM | SNB-19 > 100 µM | A549 > 100 µM | LOX IMVI > 100 µM | OVCAR-5 > 100 µM | KM12 > 100 µM | UACC-62 > 100 µM | RPMI-8226 > 100 µM | SNB-75 > 100 µM | CCRF-CEM > 100 µM | SK-MEL-5 > 100 µM | IGROV-1 > 100 µM | UACC-257 > 100 µM | OVCAR-8 > 100 µM | SNB-78 > 100 µM | K562 > 100 µM | A498 > 100 µM | ACHN > 100 µM | UO-31 > 100 µM | HCT-116 > 100 µM | RXF 393 > 100 µM | DMS-273 > 100 µM | Malme-3M > 100 µM | OVCAR-4 > 100 µM | HOP-18 > 100 µM | SN12C > 100 µM | DMS-114 > 100 µM | 786-0 > 100 µM | KM-20L2 > 100 µM | SK-MEL-28 > 100 µM | HT-29 > 100 µM | HOP-62 > 100 µM | CAKI-1 > 100 µM | SF-295 > 100 µM | NCI-H226 > 100 µM | HOP-92 > 100 µM | HL-60 > 100 µM | SW-620 > 100 µM | U-251 > 100 µM | SK-MEL-2 > 100 µM | MOLT-4 > 100 µM | SF-539 > 100 µM | NCI-H23 > 100 µM | LXFL 529 > 100 µM | SF-268 > 100 µM
